According to the NIST ThermoML archive (doi:10.1021/je300628e):
Numbers after ± are expanded uncertainties.

How the values were obtained:
[1] = wn = mass fraction of the nth substance listed; details: 101 kPa, Liquid; for viscosity: Concentric cylinders viscometry; for mass density: Vibrating tube method
[2] = 101 kPa, Liquid; for viscosity: Concentric cylinders viscometry; for mass density: Vibrating tube method

SMILES | viscosity ([2]; 303.15 K) | mass density ([2]; 303.15 K) | viscosity ([2]; 313.15 K) | mass density ([2]; 313.15 K) | viscosity ([2]; 333.15 K) | mass density ([2]; 333.15 K) | viscosity ([2]; 353.15 K) | mass density ([2]; 353.15 K) | viscosity ([2]; 363.15 K) | mass density ([2]; 363.15 K) | further results
CN(CCO)CCO [N-methyldiethanolamine] + O | – | – | – | – | – | – | – | – | – | – | viscosity ([1]; 303.15 K, w1 = 0.234): 2.285 ± 0.1 mPa·s; viscosity ([1]; 303.15 K, w1 = 0.459): 2.85 ± 0.33 mPa·s; mass density ([1]; 303.15 K, w1 = 0.234): 1018.7 ± 6 kg/m3; mass density ([1]; 303.15 K, w1 = 0.459): 1018.3 ± 6 kg/m3; viscosity ([1]; 313.15 K, w1 = 0.234): 1.612 ± 0.1 mPa·s; viscosity ([1]; 313.15 K, w1 = 0.459): 2.238 ± 0.23 mPa·s; mass density ([1]; 313.15 K, w1 = 0.234): 1014.1 ± 6 kg/m3; mass density ([1]; 313.15 K, w1 = 0.459): 1011 ± 6 kg/m3; viscosity ([1]; 333.15 K, w1 = 0.234): 1.418 ± 0.1 mPa·s; viscosity ([1]; 333.15 K, w1 = 0.459): 1.621 ± 0.13 mPa·s; mass density ([1]; 333.15 K, w1 = 0.234): 1003 ± 6 kg/m3; mass density ([1]; 333.15 K, w1 = 0.459): 1005.2 ± 6 kg/m3; viscosity ([1]; 353.15 K, w1 = 0.234): 1.121 ± 0.1 mPa·s; viscosity ([1]; 353.15 K, w1 = 0.459): 1.485 ± 0.11 mPa·s; mass density ([1]; 353.15 K, w1 = 0.234): 987.2 ± 6 kg/m3; mass density ([1]; 353.15 K, w1 = 0.459): 989.6 ± 6 kg/m3; viscosity ([1]; 363.15 K, w1 = 0.234): 1.112 ± 0.1 mPa·s; viscosity ([1]; 363.15 K, w1 = 0.459): 1.337 ± 0.1 mPa·s; mass density ([1]; 363.15 K, w1 = 0.234): 981.3 ± 6 kg/m3; mass density ([1]; 363.15 K, w1 = 0.459): 971.8 ± 6 kg/m3
CCn1cc[n+](C)c1.O=S(=O)([O-])C(F)(F)F [1-ethyl-3-methylimidazolium trifluoromethanesulfonate] | 36.14 ± 0.39 mPa·s | 1381.8 ± 1.7 kg/m3 | 26.65 ± 0.3 mPa·s | 1371.7 ± 1.7 kg/m3 | 16.45 ± 0.2 mPa·s | 1350.9 ± 1.6 kg/m3 | 12.17 ± 0.16 mPa·s | 1338.7 ± 1.6 kg/m3 | 11.14 ± 0.15 mPa·s | 1326 ± 1.6 kg/m3 | –
CCCCn1cc[n+](C)c1.N#CN=C=[N-] [1-butyl-3-methylimidazolium dicyanamide] | 23.92 ± 0.27 mPa·s | 1055.1 ± 1 kg/m3 | 17.12 ± 0.2 mPa·s | 1049.3 ± 0.9 kg/m3 | 10.49 ± 0.15 mPa·s | 1037.1 ± 0.9 kg/m3 | 6.773 ± 0.12 mPa·s | 1024.2 ± 0.9 kg/m3 | 5.523 ± 0.12 mPa·s | 1019.3 ± 0.9 kg/m3 | –
CN(CCO)CCO [N-methyldiethanolamine] | 58.62 ± 0.47 mPa·s | 1034.7 ± 0.5 kg/m3 | 37.68 ± 0.32 mPa·s | 1027.1 ± 0.5 kg/m3 | 15.26 ± 0.16 mPa·s | 1013 ± 0.5 kg/m3 | 6.756 ± 0.11 mPa·s | 996.3 ± 0.5 kg/m3 | 4.539 ± 0.11 mPa·s | 993.9 ± 0.5 kg/m3 | –
CCCCn1cc[n+](C)c1.F[B-](F)(F)F [1-butyl-3-methylimidazolium tetrafluoroborate] | 71.63 ± 0.8 mPa·s | 1191.3 ± 1.3 kg/m3 | 46.96 ± 0.5 mPa·s | 1182.3 ± 1.2 kg/m3 | 23.8 ± 0.27 mPa·s | 1166.7 ± 1.2 kg/m3 | 13.94 ± 0.18 mPa·s | 1154.9 ± 1.2 kg/m3 | 11.32 ± 0.16 mPa·s | 1139.4 ± 1.1 kg/m3 | –
